# Square brackets hold non-standard residues; d marks the D form. Ends that are not written are not given here. Peptide text beside a SMILES is read from it.
# What was measured:
# [1] = system: fourth instar Heliothis virescens; experiment: Feeding TMOF analogs to fourth instar H. virescens: larval weight; type: in vivo; settings: fourth instar larvae; for Weight Gain: 0.8 mg of analogue, 5 days; for Weight mg ± S.E.M. End: synthetic food and 0.8 mg of analogue, after 5 days; for Weight mg ± S.E.M. Start: weight before feeding (baseline)
# Experimental: (§1) Several analogues were chosen and were fed to fourth instar Heliothis virescens for seven (7) days and to first instars for fourteen (14) days (Tables 3 and 4). In both cases a reduction in weight gain and trypsin inhibition was noted (Tables 3 and 4).
# (§2) Individual first instar and fourth instar larvae of H. virescens were maintained in separate plastic cups and were fed on artificial diet blocks on which different concentrations of TMOF (0 to 1.6 mg) were adsorbed. Larvae were fed for 5 to 14 days and larval weight and trypsin activity were measured at the end of the experimental periods. […] When first instar larvae were fed for 14 days, an 18% and 26% reduction in weight was observed when analogues 15 and 16 were used (Table 4).
# Fourth instar larvae were weighed and fed on synthetic food and 0.8 mg of TMOF analogues for 5 days. […]. Results are average of 3 to 10 experiments S.E.M.
# [2] = system: first instar Heliothis virescens; experiment: Feeding first instar H. virescens on TMOF analogs for 14 days; type: in vivo; parameters: Weight Reduction ± S.E.M.: concentration or dose not given beside the values; settings: first instar larvae fed 14 days; for Weight Reduction ± S.E.M.: versus control
# Experimental: as §1, §2
# [3] = system: TTLE biosynthesis; experiment: Feeding TMOF analogs to fourth instar H. virescens: gut trypsin (TTLE) biosynthesis by [3H]DFP; type: in vivo, Heliothis virescens; parameters: Trypsin: unit not given here; settings: fourth instar larvae, 0.8 mg of analogue, 5 days; for Trypsin: guts incubated with [3H]DFP; for Inhibition (trypsin): versus control
# [4] = system: Aedes aegypti larvae; experiment: Feeding TMOF and analog peptides to mosquito larvae (LD50); type: in vivo; settings: newly hatched larvae on autoclaved yeast 1 mg/ml, peptide 0 to 5.0 mg/ml, microtiter plates, 7 days
# Description: TMOF can traverse the gut epithelium, enter the hemolymph and bind a gut receptor (Borovsky, D. and F. Mahmood (1995) “Feeding the mosquito Aedes aegypti with TMOF and its analogs; effect on trypsin biosynthesis and egg development,” Regulatory Peptides 57:273-281.; Borovsky et al. (1994) “Characterization and localization of mosquito-gut receptors for trypsin modulating oostatic factor using complementary peptide immunochemistry”FASEB J. 8:350-355.). This characteristic permits the testing of TMOF and its analogues by feeding them to mosquito and other pest larvae. To find out if truncated TMOF peptides have an effect on larval growth and development, a series of peptides were synthesized and tested by feeding them to mosquito larvae at concentrations of 0 to 5.0 mg/ml (Table 2). Individual, newly hatched Aedes aegypti larvae were maintained in separate microtiter plate wells on a diet of autoclaved yeast (1 mg/ml). The diet was supplemented with TMOF peptides (Table 2). An identical number of larvae maintained on yeast served as a control. […] All control groups survived and larval growth and development was normal. Since larvae swallow only a small portion of the yeast particles adsorbed the peptides, it is assumed that approximately 1 to 20 ng are taken orally at the high concentrations.
molecule,measurement,setting,value
"C[C@H](NC(=O)[C@@H]1CCCN1C(=O)[C@@H](CC(=O)O)NC(=O)[C@@H](N)Cc1ccc(O)cc1)C(=O)N1CCC[C@H]1C(=O)O [17. Y(D)DPAP, Y(D)DPAP] (H-Y[dD]PAP-OH; N-terminus and C-terminus assumed)",Weight Gain,[1],153 mg
same,Weight mg ± S.E.M. End,[1],188 ± 12 mg
same,Weight mg ± S.E.M. Start,[1],34.6 ± 2 mg
same,Number of Dead Larvae,[2],1
same,Weight ± S.E.M.,[2],152 ± 27 mg
same,Weight Reduction ± S.E.M.,[2],7 ± 1%
same,Trypsin,[3],2.1 ± 0.2
same,Inhibition (trypsin),[3],15 ± 1.3%
"N[C@@H](Cc1ccc(O)cc1)C(=O)N[C@H](CC(=O)O)C(=O)N1CCC[C@H]1C(=O)O [22. Y(D)DP, Y(D)DP] (H-Tyr-[dD]-Pro-OH; N-terminus and C-terminus assumed)",LD50 + S.E.M.,[4],0.28 ± 0.01 mM
"N[C@H](Cc1ccc(O)cc1)C(=O)N[C@@H](CC(=O)O)C(=O)N1CCC[C@H]1C(=O)O [24. (D)YDP, (D)YDP] (H-[dY]-Asp-Pro-OH; N-terminus and C-terminus assumed)",LD50 + S.E.M.,[4],0.51 ± 0.05 mM
"C[C@H](NC(=O)[C@H](C)NC(=O)[C@@H](N)CC(=O)O)C(=O)O [25. DAA, DAA] (H-Asp-Ala-Ala-OH; N-terminus and C-terminus assumed)",LD50 + S.E.M.,[4],0.91 ± 0.06 mM
"N[C@@H](Cc1ccc(O)cc1)C(=O)N[C@@H](CC(=O)O)C(=O)NCC(=O)O [26. YDG, YDG] (H-Tyr-Asp-Gly-OH; N-terminus and C-terminus assumed)",LD50 + S.E.M.,[4],0.95 ± 0.11 mM
"N[C@@H](Cc1ccc(O)cc1)C(=O)N[C@@H](CC(=O)O)C(=O)N[C@@H](Cc1ccccc1)C(=O)O [27. YDF, YDF] (H-Tyr-Asp-Phe-OH; N-terminus and C-terminus assumed)",LD50 + S.E.M.,[4],0.97 ± 0.11 mM
"C[C@H](N)C(=O)N1CCC[C@H]1C(=O)N[C@@H](C)C(=O)O [28. APA, APA] (H-Ala-Pro-Ala-OH; N-terminus and C-terminus assumed)",LD50 + S.E.M.,[4],1.0 ± 0.07 mM
"C[C@H](N)C(=O)N[C@@H](C)C(=O)N1CCC[C@H]1C(=O)O [29. AAP, AAP] (H-Ala-Ala-Pro-OH; N-terminus and C-terminus assumed)",LD50 + S.E.M.,[4],1.08 ± 0.07 mM
"N[C@@H](Cc1ccc(O)cc1)C(=O)N[C@@H](CO)C(=O)N[C@@H](Cc1ccccc1)C(=O)O [30. YSF, YSF] (H-Tyr-Ser-Phe-OH; N-terminus and C-terminus assumed)",LD50 + S.E.M.,[4],1.08 ± 0.12 mM
"N[C@@H](CC(=O)O)C(=O)N[C@@H](Cc1ccc(O)cc1)C(=O)N1CCC[C@H]1C(=O)O [31. DYP, DYP] (H-Asp-Tyr-Pro-OH; N-terminus and C-terminus assumed)",LD50 + S.E.M.,[4],1.27 ± 0.17 mM
same,Weight Gain,[1],180.5 mg
same,Weight mg ± S.E.M. End,[1],216.7 ± 13 mg
same,Weight mg ± S.E.M. Start,[1],36.2 ± 2.4 mg
same,Number of Dead Larvae,[2],1
same,Weight ± S.E.M.,[2],149 ± 9 mg
same,Weight Reduction ± S.E.M.,[2],9 ± 0.5%
same,Trypsin,[3],2.2 ± 0.3
same,Inhibition (trypsin),[3],14 ± 1.8%
"C[C@H](NC(=O)[C@H](CC(=O)O)NC(=O)[C@@H](N)Cc1ccc(O)cc1)C(=O)O [32. YDA, YDA] (H-Tyr-Asp-Ala-OH; N-terminus and C-terminus assumed)",LD50 + S.E.M.,[4],1.6 ± 0.13 mM
"N[C@@H](Cc1ccccc1)C(=O)N[C@@H](CC(=O)O)C(=O)N1CCC[C@H]1C(=O)O [33. FDP, FDP] (H-Phe-Asp-Pro-OH; N-terminus and C-terminus assumed)",LD50 + S.E.M.,[4],1.98 ± 0.6 mM
"N[C@@H](Cc1ccc(O)cc1)C(=O)N[C@@H](CC(=O)O)C(=O)N1CCC[C@H]1C(=O)O [34. YDP, YDP] (H-Tyr-Asp-Pro-OH; N-terminus and C-terminus assumed)",LD50 + S.E.M.,[4],2.3 ± 0.4 mM
same,Weight Gain,[1],186.3 mg
same,Weight mg ± S.E.M. End,[1],223.4 ± 16 mg
same,Weight mg ± S.E.M. Start,[1],37 ± 1.5 mg
same,Number of Dead Larvae,[2],0
same,Weight ± S.E.M.,[2],157 ± 10 mg
same,Weight Reduction ± S.E.M.,[2],4 ± 0.2%
same,Trypsin,[3],2.1 ± 0.3
same,Inhibition (trypsin),[3],19 ± 3.2%
"N[C@@H](Cc1ccccc1)C(=O)N[C@@H](CO)C(=O)N1CCC[C@H]1C(=O)O [35. FSP, FSP] (H-Phe-Ser-Pro-OH; N-terminus and C-terminus assumed)",LD50 + S.E.M.,[4],2.3 ± 0.13 mM
"C[C@H](NC(=O)[C@@H](N)Cc1ccc(O)cc1)C(=O)N1CCC[C@H]1C(=O)O [36. YAP, YAP] (H-Tyr-Ala-Pro-OH; N-terminus and C-terminus assumed)",LD50 + S.E.M.,[4],2.3 ± 0.5 mM
"C[C@H](NC(=O)[C@H](C)NC(=O)[C@@H]1CCCN1)C(=O)O [37. PAA, PAA] (H-Pro-Ala-Ala-OH; N-terminus and C-terminus assumed)",LD50 + S.E.M.,[4],2.4 ± 0.34 mM
"C[C@H](NC(=O)[C@@H]1CCCN1)C(=O)N1CCC[C@H]1C(=O)O [38. PAP, PAP] (H-Pro-Ala-Pro-OH; N-terminus and C-terminus assumed)",LD50 + S.E.M.,[4],3.17 ± 0.14 mM
"C[C@H](NC(=O)[C@@H](N)Cc1ccccc1)C(=O)N1CCC[C@H]1C(=O)O [39. FAP, FAP] (H-Phe-Ala-Pro-OH; N-terminus and C-terminus assumed)",LD50 + S.E.M.,[4],3.8 ± 0.23 mM
"C[C@H](N)C(=O)N[C@@H](CC(=O)O)C(=O)N1CCC[C@H]1C(=O)O [40. ADP, ADP] (H-Ala-Asp-Pro-OH; N-terminus and C-terminus assumed)",LD50 + S.E.M.,[4],>6.6 mM
"N[C@@H](Cc1ccc(O)cc1)C(=O)N[C@@H](CC(=O)O)C(=O)O [41. YD, YD] (H-Tyr-Asp-OH; N-terminus and C-terminus assumed)",LD50 + S.E.M.,[4],1.24 ± 0.06 mM
"N[C@@H](CC(=O)O)C(=O)N[C@@H](Cc1ccc(O)cc1)C(=O)O [42. DY, DY] (H-Asp-Tyr-OH; N-terminus and C-terminus assumed)",LD50 + S.E.M.,[4],3.0 ± 0.8 mM
ADAAP (()..() TMOF analog) [ADAAP(12)],Weight Gain,[1],174.1 mg
same,Weight mg ± S.E.M. End,[1],209.7 ± 12 mg
same,Weight mg ± S.E.M. Start,[1],35.7 ± 1.5 mg
same,Number of Dead Larvae,[2],0
same,Weight ± S.E.M.,[2],141 ± 9 mg
same,Weight Reduction ± S.E.M.,[2],7 ± 0.4%
same,Trypsin,[3],2.4 ± 0.3
same,Inhibition (trypsin),[3],5 ± 0.6%
"ADPAP [21. ADPAP, ADPAP]",LD50 + S.E.M.,[4],2.0 ± 0.36 mM
"FDPAP [5. FDPAP, FDPAP]",LD50 + S.E.M.,[4],0.37 ± 0.15 mM
"MPDYPPPPP [2. MPDYP5, MPDYP5]",LD50 + S.E.M.,[4],>3.0 mM
"YAPAP [8. YAPAP, YAPAP]",LD50 + S.E.M.,[4],0.54 ± 0.13 mM
"YDAAP [15. YDAAP, YDAAP]",LD50 + S.E.M.,[4],1.0 ± 0.18 mM
same,Weight Gain,[1],179 mg
same,Weight mg ± S.E.M. End,[1],217 ± 9.5 mg
same,Weight mg ± S.E.M. Start,[1],38.2 ± 1.3 mg
same,Number of Dead Larvae,[2],0
same,Weight ± S.E.M.,[2],133 ± 7 mg
same,Weight Reduction ± S.E.M.,[2],18 ± 1%
same,Trypsin,[3],2.1 ± 0.2
same,Inhibition (trypsin),[3],17 ± 1.6%
"YDFAP [14. YDFAP, YDFAP]",LD50 + S.E.M.,[4],0.74 ± 0.13 mM
same,Weight Gain,[1],164 mg
same,Weight mg ± S.E.M. End,[1],201 ± 12 mg
same,Weight mg ± S.E.M. Start,[1],37 ± 1.3 mg
same,Number of Dead Larvae,[2],1
same,Weight ± S.E.M.,[2],121 ± 7 mg
same,Weight Reduction ± S.E.M.,[2],26 ± 1.5%
same,Trypsin,[3],2.1 ± 0.2
same,Inhibition (trypsin),[3],19 ± 1.5%
"YDLAP [13. YDLAP, YDLAP]",LD50 + S.E.M.,[4],0.6 ± 0.05 mM
"YDPAA [19. YDPAA, YDPAA]",LD50 + S.E.M.,[4],1.6 ± 0.13 mM
"YDPAF [3. YDPAF, YDPAF]",LD50 + S.E.M.,[4],0.33 ± 0.2 mM
"YDPAL [7. YDPAL, YDPAL]",LD50 + S.E.M.,[4],0.52 ± 0.03 mM
"YDPAP [12. YDPAP, YDPAP, reference compound]",LD50 + S.E.M.,[4],0.64 ± 0.03 mM
"YDPAPPPPPP [1. YDPAP6, YDPAP6, reference compound]",LD50 + S.E.M.,[4],0.2 ± 0.02 mM
"YDPFP [20. YDPFP, YDPFP]",LD50 + S.E.M.,[4],1.7 ± 0.4 mM
"YDPGP [16. YDPGP, YDPGP]",LD50 + S.E.M.,[4],1.1 ± 0.18 mM
same,Weight Gain,[1],163.1 mg
same,Weight mg ± S.E.M. End,[1],199.8 ± 11 mg
same,Weight mg ± S.E.M. Start,[1],31.7 ± 1.6 mg
same,Number of Dead Larvae,[2],2
same,Weight ± S.E.M.,[2],153 ± 10 mg
same,Weight Reduction ± S.E.M.,[2],6 ± 0.4%
same,Trypsin,[3],2.1 ± 0.1
same,Inhibition (trypsin),[3],17 ± 1%
"YDPLP [6. YDPLP, YDPLP]",LD50 + S.E.M.,[4],0.5 ± 0.04 mM
"YEPAP [4. YEPAP, YEPAP]",LD50 + S.E.M.,[4],0.35 ± 0.02 mM
"YFPAP [11. YFPAP, YFPAP]",LD50 + S.E.M.,[4],0.64 ± 0.03 mM
"YNPAP [9. YNPAP, YNPAP]",LD50 + S.E.M.,[4],0.55 ± 0.03 mM

# — patent US6593299B1, “Compositions and methods for controlling pests” (priority 1999, dated 2003)
